Experimental findings from patent US11851440B2, “Modulators of eukaryotic initiation factor 2B, compositions and methods” (Denali Therapeutics Inc., priority 2017, dated 2023) are described below.

Series [1] concerns the target T1, P-gp (P-glycoprotein, MDR1) (Homo sapiens, UniProt P08183).
T1 construct: host or cells: MDCKII-MDR1 cells (pre-plated, Corning HTS Transwell-96)
The series can be described thus: MDCKII-MDR1 permeability, bidirectional assay. It is filed as in vitro ADME. To be noted: dog, MDCK-MDR1, MDCKII-MDR1 cells, HBSS+12.5 mM HEPES pH 7.4. The method, then:
The blood brain barrier (BBB) separates circulating blood from the extracellular fluid of the central nervous system (CNS). […] A bidirectional assay (Apical to Basolateral (A→B) and Basolateral to Apical (B→A)), in the absence and in the presence of GF120918 (a P-gp inhibitor) was conducted using pre-plated MDCKII-MDR1 cells (Corning HTS Transwell-96) obtained from SOLVO Biotechnology. The assay was run at 3 μM for 90 min (minutes) in triplicate using a HBSS+12.5 mM HEPES pH 7.4 transport buffer. Following incubation of samples from donor and receiver, wells were removed and measured by LC-MS/MS. Samples were extracted by protein precipitation with acetonitrile containing an appropriate internal standard (IS) having a known mass and molecular weight. The precipitate was centrifuged for 10 min at 3000 rpm (revolutions per minute). The supernatants were then collected, diluted if necessary, and injected on to the LC-MS/MS system. Specific parent/daughter ion pairs for the test article and IS were used to selectively measure the test articles. Papp (apparent permeability expressed in nm/sec [nanometer/second]) values were calculated according to the following equation: […]
Where dQ/dt is the permeability rate, C0 is the initial concentration in the donor solution (expressed as IS ratio), A and B are the surface areas of the filter (the surface area of the cell monolayer).
Monolayer efflux ratios (ER) were derived using the following equation: […]

Series [2] deals with ISR pathway (ATF4 translation). The series can be described thus: ATF4 Nano Luciferase reporter integrated stress response (ISR) assay in H4 ATF4-NLuc cells. To be noted: Homo sapiens, compound 30 minutes, then 50 um sodium arsenite for 6 hours, luminescence readout.
[3] abbreviates: read-out: Activity (IC50), H4 ATF4-NLuc (clone 17) cells.

Structures are written as SMILES. Like-named read-outs stand apart in the source and are kept apart here.

T1 sequence (P08183 whole entry): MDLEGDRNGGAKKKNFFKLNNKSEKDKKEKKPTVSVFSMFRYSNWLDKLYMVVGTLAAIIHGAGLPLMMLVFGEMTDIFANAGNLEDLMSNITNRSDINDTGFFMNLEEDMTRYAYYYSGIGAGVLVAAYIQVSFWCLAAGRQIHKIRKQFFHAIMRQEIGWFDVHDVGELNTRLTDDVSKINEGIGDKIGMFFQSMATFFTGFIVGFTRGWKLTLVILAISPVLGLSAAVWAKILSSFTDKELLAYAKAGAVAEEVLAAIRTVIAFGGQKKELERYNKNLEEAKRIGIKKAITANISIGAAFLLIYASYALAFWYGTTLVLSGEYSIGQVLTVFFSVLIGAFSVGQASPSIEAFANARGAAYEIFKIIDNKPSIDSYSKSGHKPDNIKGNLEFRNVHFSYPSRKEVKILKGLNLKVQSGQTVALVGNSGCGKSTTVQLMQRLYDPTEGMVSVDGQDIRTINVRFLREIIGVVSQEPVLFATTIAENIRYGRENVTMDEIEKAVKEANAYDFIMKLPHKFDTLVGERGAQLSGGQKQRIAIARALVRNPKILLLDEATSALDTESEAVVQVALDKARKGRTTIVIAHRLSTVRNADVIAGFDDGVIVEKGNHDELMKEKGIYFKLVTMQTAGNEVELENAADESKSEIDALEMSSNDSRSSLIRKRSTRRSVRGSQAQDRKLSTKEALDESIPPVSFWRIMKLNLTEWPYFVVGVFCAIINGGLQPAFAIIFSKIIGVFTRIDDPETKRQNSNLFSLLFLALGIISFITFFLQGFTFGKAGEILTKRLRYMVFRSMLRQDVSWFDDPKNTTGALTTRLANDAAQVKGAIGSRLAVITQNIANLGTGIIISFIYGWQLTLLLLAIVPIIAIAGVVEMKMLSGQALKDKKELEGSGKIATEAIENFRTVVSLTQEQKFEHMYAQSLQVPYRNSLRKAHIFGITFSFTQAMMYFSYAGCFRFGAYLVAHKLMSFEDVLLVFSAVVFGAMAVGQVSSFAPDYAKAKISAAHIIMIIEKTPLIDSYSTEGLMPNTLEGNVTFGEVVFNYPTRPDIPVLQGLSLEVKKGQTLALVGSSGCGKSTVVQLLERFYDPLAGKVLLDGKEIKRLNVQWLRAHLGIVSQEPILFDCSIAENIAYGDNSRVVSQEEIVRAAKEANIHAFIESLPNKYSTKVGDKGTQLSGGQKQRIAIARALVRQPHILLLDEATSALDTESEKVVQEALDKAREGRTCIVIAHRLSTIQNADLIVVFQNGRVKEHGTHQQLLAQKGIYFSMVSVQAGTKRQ

In the case of `O=C(CO[C@H]1C[C@@H](OC(F)(F)F)C1)NC12CC(n3cnc(-c4ccc(Cl)cc4)c3)(C1)C2` [Example 139, N-(3-(4-(4-chlorophenyl)-1H-imidazol-1-yl)bicyclo[1.1.1]pentan-1-yl)-2-(3-cis-(trifluoromethoxy)cyclobutoxy)acetamide], the efflux ratio at 90 min, 3 μM in series [1] is no more than 2.5. Also, the IC50 in series [2] (H4 ATF4-NLuc (clone 17) cells) is 4.3 nM; in series [2] (setting [3]), less than 1000 nM.
As to `O=C(CO[C@H]1C[C@@H](OC(F)(F)F)C1)NC12CC(n3cnc(-c4ccc(Cl)cc4F)c3)(C1)C2` [Example 146, N-(3-(4-(4-chloro-2-fluorophenyl)-1H-imidazol-1-yl)bicyclo[1.1.1]pentan-1-yl)-2-(3-cis-(trifluoromethoxy)cyclobutoxy)acetamide], in series [1], the efflux ratio at 90 min, 3 μM is no more than 2.5. In addition, the IC50 in series [2] (H4 ATF4-NLuc (clone 17) cells) was 3.7 nM; in series [2] (setting [3]) it was less than 1000 nM.
Taken in the same sequence, the figures for `O=C(CO[C@H]1C[C@@H](OC(F)(F)F)C1)NC12CC(c3cnn(-c4ccc(Cl)c(F)c4)c3)(C1)C2` [Example 236, N-(3-(1-(4-chloro-3-fluorophenyl)-1H-pyrazol-4-yl)bicyclo[1.1.1]pentan-1-yl)-2-(3-cis-(trifluoromethoxy)cyclobutoxy)acetamide] were no more than 2.5, 21.5 nM and less than 1000 nM.
Taken in the same sequence, the figures for `O=C(CO[C@H]1C[C@@H](OC(F)(F)F)C1)NC12CC(c3cc(-c4ccc(Cl)c(F)c4)no3)(C1)C2` [Example 248, N-(3-(3-(4-chloro-3-fluorophenyl)isoxazol-5-yl)bicyclo[1.1.1]pentan-1-yl)-2-(3-cis-(trifluoromethoxy)cyclobutoxy)acetamide] were no more than 2.5, 28.2 nM and less than 1000 nM.
For `O=C(CO[C@H]1C[C@@H](OC(F)(F)F)C1)NC12CC(n3cnc(-c4ccc(C(F)(F)F)cc4O)c3)(C1)C2` [Example 254, N-(3-(4-(2-hydroxy-4-(trifluoromethyl)phenyl)-1H-imidazol-1-yl)bicyclo[1.1.1]pentan-1-yl)-2-(3-cis-(trifluoromethoxy)cyclobutoxy)acetamide] the same measures were no more than 2.5, 5.3 nM and less than 1000 nM.
Consider `O=C(CO[C@H]1C[C@@H](OC(F)(F)F)C1)NC12CC(n3cnc(-c4ccc(Cl)c(F)c4F)c3)(C1)C2` [Example 270, N-(3-(4-(4-chloro-2,3-difluorophenyl)-1H-imidazol-1-yl)bicyclo[1.1.1]pentan-1-yl)-2-(3-cis-(trifluoromethoxy)cyclobutoxy)acetamide], for which the efflux ratio at 90 min, 3 μM in series [1] was no more than 2.5. The IC50 in series [2] (H4 ATF4-NLuc (clone 17) cells) was 1.1 nM; in series [2] (setting [3]), less than 1000 nM.

Usually efflux ratio stands for a quotient of directional permeabilities that is used to spot active efflux. Usually IC50 stands for the concentration needed to halve the response being measured.
